Columns and labels:
Assay type in all cases: cell-based, human
[1] = test system: AsPC-1 cells; assay: XTT cell proliferation assay, AsPC-1; details: for decrease in cell growth: 72 h
Method: (§1) Human PDAC (AsPC-1, BxPC-3, Panc-1 scr, Panc-1 p53-R273H knock-out (KO) hTERT-HPNE), breast (MCF-7), lung (A549), and colon (HT-29) cancer cell lines were purchased from the American Type Culture Collection (ATCC). The MCF-7, A549, Panc-1 scr, Panc-1 p53 KO and HT-29 cell lines were grown in Dulbecco's Modified Eagle Medium (DMEM; Biological Industries, Beit HaEmek (BI), Israel), and the BxPC-3 and AsPC-1 cell lines were cultured in Roswell Park Memorial Institute-1640 (RPMI-1640; BI, Israel) medium. All media was supplemented with 10% fetal bovine serum (FBS), 200 μM L-glutamine (BI), and 1% penicillin-streptomycin (BI). Cells were cultured at 37° C. in a 5% CO2 humidified incubator.
(§2) Eravacycline dihydrochloride (MedChem Express (MCE)) was dissolved in […] (DDW). Tigecycline (MCE) and omadacycline (MCE) were dissolved in dimethyl sulphoxide (DMSO). All drugs were prepared as 100 mM stock solutions. All cell lines were treated with DMSO as a control (less than 0.1%) or tigecycline, omadacycline, or eravacycline (at the indicated concentrations) for 72 hours. Cell viability and proliferation were determined using the XTT Cell Proliferation Assay Kit (Promega).
(§3) The XTT Cell Proliferation Assay Kit was used to determine cell viability and proliferation. Cells were seeded in 96-well plates at a density of 4,000 cells per well and allowed to attach overnight in a 5% CO2 incubator at 37° C. After overnight incubation, cells were treated with culture medium or in a medium containing tigecycline, omadacycline, or eravacycline at different concentrations (1, 2, 5, 10, 25, and 50 μM) for the indicated time period. Then, 50 μl XTT reaction solution (0.1 ml activation solution+5 ml XTT reagent solution) was added to each well, and the plate was incubated at 37° C. for two hours. After shaking the plate gently to distribute the dye in the wells, the absorbance was measured with a spectrophotometer (Bio-RadiMark Microplate Absorbance reader) at a wavelength of 450 nm and a reference wavelength of 655 nm.
To evaluate the half maximal inhibitory concentration (IC50) of tetracycline derivatives on five different cell lines (MCF-7, A549, HT-29, BxPC-3, and AsPC-1), the cells were seeded and allowed to attach overnight. All cells were washed with phosphate buffered saline (PBS) and then cultured in fresh media containing the drugs tigecycline, omadacycline, or eravacycline at an increasing concentration (0-50 μM) for 72 h. Inhibition of cell proliferation was determined using the XTT Cell Proliferation Assay Kit.
To investigate the effect of tetracycline derivatives on cell proliferation in human breast, lung, colon, and PDAC cells, the inventors treated all cell lines (MCF-7, A549, HT-29, BxPC-3, and AsPC-1) with different concentrations of tigecycline, omadacycline, and eravacycline (1, 2, 5, 10, 25, and 50 μM), with medium used as a control, for 72 h. Then, an XTT assay was performed to determine the growth inhibition rate.

[2] = test system: A549 cells; assay: XTT cell proliferation assay, A549; details: A549, 72 h, 1-50 μM
Method: as §1, §2
(§4) The XTT Cell Proliferation Assay Kit was used to determine cell viability and proliferation. Cells were seeded in 96-well plates at a density of 4,000 cells per well and allowed to attach overnight in a 5% CO2 incubator at 37° C. […] After shaking the plate gently to distribute the dye in the wells, the absorbance was measured with a spectrophotometer (Bio-RadiMark Microplate Absorbance reader) at a wavelength of 450 nm and a reference wavelength of 655 nm.
(§5) To evaluate the half maximal inhibitory concentration (IC50) of tetracycline derivatives on five different cell lines (MCF-7, A549, HT-29, BxPC-3, and AsPC-1), the cells were seeded and allowed to attach overnight. […] Inhibition of cell proliferation was determined using the XTT Cell Proliferation Assay Kit. […]

[3] = test system: HT-29 cells; assay: XTT cell proliferation assay, HT-29; details: HT-29, 72 h, 1-50 μM
Method: as §1, §2, §4, §5

[4] = test system: Panc-1 scr, Panc-1 p53-R273H knock-out (KO) cell lines; assay: XTT cell proliferation assay, Panc-1 cell lines; details: 72 h, 1-50 μM
Method: as §1
as §3, with “Then, 50 μl XTT reaction solution (0.1 ml activation solution+5 ml XTT reagent solution) was added to each well, and the plate was incubated at 37° C. for two hours.” left out, “nm. […]” for “nm.”

[5] = test system: cleaved Poly (ADP-ribose) polymerase 1 (C-PARP1); assay: Western blot of C-PARP1 in BxPC-3 cells; details: BxPC-3, 15 μM, 72 h
Method: Following the three-day incubation of BxPC-3 cells with medium alone as a control or medium containing different concentrations of eravacycline, gemcitabine, or doxorubicin, BxPC-3 cells were harvested and lysed. BxPC-3 cells were briefly lysed with a buffer containing 20 mM HEPES (pH 7.4), 150 mM NaCl, 1 mM EGTA, 1 mM EDTA, 10% glycerol, 1 mM MgCl2, 1% Triton X-100, and 10 μL of protease phosphatase inhibitors per 1 mL buffer. After incubation on ice for 45 min, the lysates were sonicated for 15 min (40% amplitude without pulses) and centrifuged at 12,000×g at 4° C., and the supernatants were collected. The supernatants were analyzed for protein concentration using the Bradford assay. Absorbance was recorded on a microplate reader at 595 nm (Bio-RadiMark Microplate Absorbance reader).
To evaluate the expression of cell apoptosis-related proteins, cleaved Poly (ADP-ribose) polymerase 1 (C-PARP1) was detected using western blot assays. Actin was used as a control. […] Membranes were incubated for 1 h at room temperature with anti-rabbit secondary antibodies (1:1,000, Sigma-Aldrich). β-actin levels were determined using anti-β-actin (1:10,000, Sigma-Aldrich). Immune complexes were detected with a chemiluminescence reagent (Thermo Fisher Scientific, Pierce ECL Plus Substrate), followed by exposure to Kodak X-ray film (Rochester, NY, USA). […]

[6] = test system: POLK; assay: Western blot of POLK protein expression in BxPC-3 cells; details: BxPC-3, 72 h, increasing concentrations

CN(C)[C@@H]1C(O)=C(C(N)=O)C(=O)[C@@]2(O)C(O)=C3C(=O)c4c(O)c(NC(=O)CN5CCCC5)cc(F)c4C[C@H]3C[C@@H]12 [eravacycline, (4S,4aS,5aR,12aS)-4-(Dimethylamino)-7-fluoro-3,10,12,12a-tetrahydroxy-1,11-dioxo-9-[2-(pyrrolidin-1-yl)acetamido]-1,4,4a,5,5a,6,11,12a-octahydrotetracene-2-carboxamide]
decrease in cell growth ([1]; AsPC-1, 25 μM): 75%
decrease in cell growth ([1]; AsPC-1, 50 μM): 89%
suppression of proliferation, up to ([1]; AsPC-1, 72 h, concentration-dependent, 1-50 μM): 90-93%
IC50 ([1]; Homo sapiens, ASPC1, AsPC-1, 72 h, XTT, read-out: IC50, inhibition of cell proliferation): 7.07 µM
effect on cell survival / proliferation (in words) [2]: No significant effect
effect on cell survival / proliferation (in words) [3]: No significant effect
effect on cell viability (in words) [4]: No significant effect
effect on cell viability (in words) ([4]; listed as Eravacycline): no toxicity was observed
C-PARP1 expression vs control [5]: increased significantly
POLK protein expression vs control [6]: significantly reduced
